Test results from patent publication US20140275197A1, “ALPHA-2 ADRENERGIC AGONIST FOR TREATING INTRAOCULAR PRESSURE AND OCULAR DISEASES THROUGH INTRAVITREAL AND INTRACAMERAL ROUTES” (priority 2013, published 2014).
“Also recorded” adds a separate entry of the source.

Legend:
[1] = cited from earlier work
dutch belted rabbits [2] = test: Intraocular pressure lowering after intravitreal (IVT) injection at equimolar concentration; assay type: in vivo, rabbit
dutch belted rabbits [3] = test: Intraocular pressure lowering after bolus intracameral (IC) injection at equimolar concentration; assay type: in vivo, rabbit
Description: Due to the chemical similarity and the pharmacokinetics profile of brimonidine, 4-bromo-N-imidazolidin-2-ylidene-1-H-benzimidazol-5-amine and dexmedetomidine, it would be expected for these molecules to have a similar behavior following intravitreal bolus injection into the back of the eye.

[4] = in vivo
[5] = rat, in vivo, po; cited from earlier work
[6] = increasing amount of brimonidine

SMILES	clearance from the aqueous humor ([1]; following topical dosing)	passage through cornea and sclera ([1]; following topical dosing)	effect of increasing the amount on half life in the aqueous humor [1, 6]	effect of increasing the amount on systemic exposure [1, 6]	IOP decrease compared with brimonidine and dexmedetomidine (dutch belted rabbits [2])	potency versus brimonidine and dexmedetomidine (dutch belted rabbits [3]; administered intracamerally at equimolar concentration, normotensive rabbits)	IOP decrease compared with brimonidine and dexmedetomidine (dutch belted rabbits [3]; bolus intracameral injection, equimolar concentration, rabbits)	level in the systemic circulation [4]	time for which the level in the aqueous humor is maintained [4]	amount found in urine [5]
Nc1cc(Cl)c(N=C2NCCN2)c(Cl)c1 [apraclonidine, 2,6-dichloro-N-imidazolidin-2-ylidene-benzene-1,4-diamine]	rapidly cleared	–	–	–	–	–	–	–	–	–
Brc1c(NC2=NCCN2)ccc2nccnc12 [brimonidine, (5-bromo-quinoxalin-6-yl)-imidazolidin-2-ylidene-amine]	rapidly cleared	readily pass through the cornea and sclera	does not improve its half life	increased systemic exposure	–	–	–	–	–	–
Brc1c(N=C2NCCN2)ccc2[nH]cnc12 [4-bromo-N-imidazolidin-2-ylidene-1-H-benzimidazol-5-amine]	–	–	–	–	more efficacious at decreasing IOP than brimonidine and dexmedetomidine; also recorded: outperforms brimonidine; also recorded: more potent and efficacious than brimonidine	at least 50 fold	more efficacious at decreasing lop than brimonidine and dexmedetomidine; also recorded: outperforms brimonidine; also recorded: more effective than brimonidine and dexmedetomidine	undetectable levels	≥ 8 h	trace amounts
